Assay results as given in publication PMC10060639, “Prediction and bioactivity of small-molecule antimicrobial peptides from Protaetia brevitarsis Lewis larvae” (Frontiers in Microbiology, 2023).
Where two headings read alike, the source gives them in different places. Ends that are not written are not given here.

Assays:
E. coli [1] = experiment: agar punch method, inhibition circle; type: cell-based, Escherichia coli; conditions: 6 mm hole, 55 μL of 1 mg/mL, NA, 37°C, 16–18 h, mean ± SD, three replicates, + control given per plate group
Procedure: (§1) Staphylococcus aureus CMCC(B) 26003, B. thuringiensis, E. coli, and P. aeruginosa CMCC(B)10104 were cultured in NA medium and C. albicans CMCC(F) 98001 was cultured in SDA medium. They were incubated in a constant-temperature (bacteria: 37°C; fungi: 28°C) incubator for 16–20 h. Thereafter, single colonies were picked and incubated in 50 mL MHB at 160 rpm/min at the optimal growth temperature (bacteria: 37°C; fungi: 28°C). Microbial suspensions of 1 × 10^6 CFU/mL were then prepared ([Chen et al., 2016]).
(§2) 100 μL of 1 × 10^6 CFU/mL microbial suspension (E. coli, P. aeruginosa CMCC(B)10104, B. thuringiensis, S. aureus CMCC(B) 26003, or C. albicans CMCC(F) 98001) was evenly applied to dishes containing 20 mL NA (bacteria) or SDA (fungi). After the microbial solution solidified, six holes per dish were punched with a sterile pipette tip of 6 mm in diameter, with each hole spaced >20 mm apart and > 10 mm apart from the edge of the dish. […] Next, 55 μL of 1 mg/mL control/treatment was added to each hole and incubated in a constant-temperature (bacteria: 37°C; fungi: 28°C) incubator for 16–18 h ([Chen et al., 2016]; [Gong et al., 2022]), with three replicates for each treatment group. The diameter of the inhibition circle was measured using ImageJ software (National Institutes of Health, United States) in order to preliminarily determine whether the candidate peptides had inhibitory activity.

[2] = system: P. aeruginosa CMCC(B)10104; experiment: agar punch method, inhibition circle; type: cell-based, Pseudomonas aeruginosa; conditions: 6 mm hole, 55 μL of 1 mg/mL, NA, 37°C, 16–18 h, mean ± SD, three replicates, + control given per plate group
Procedure: as §1, §2

B. thuringiensis [3] = experiment: agar punch method, inhibition circle; type: cell-based, Bacillus thuringiensis; conditions: 6 mm hole, 55 μL of 1 mg/mL, NA, 37°C (Fig. S3C: 30°C), 16–18 h, mean ± SD, three replicates, + control given per plate group
Procedure: as §1, §2

S. aureus CMCC(B) 26003 [4] = experiment: agar punch method, inhibition circle; type: cell-based, Staphylococcus aureus; conditions: 6 mm hole, 55 μL of 1 mg/mL, NA, 37°C, 16–18 h, mean ± SD, three replicates, + control given per plate group
Procedure: as §1, §2

[5] = system: C. albicans CMCC(F) 98001; experiment: agar punch method, inhibition circle; type: cell-based, Candida albicans; conditions: 6 mm hole, 55 μL of 1 mg/mL, SDA, 28°C, 16–18 h, mean ± SD, three replicates, + control given per plate group
Procedure: as §1, §2

E. coli [6] = type: cell-based, Escherichia coli
Procedure: as §1
(§3) The MIC values of five candidate peptides (FD4, FD10, FD12, FD14, and FD15), which were selected based on physicochemical properties and antimicrobial effects (determined by the agar punch method), were evaluated using a micro-broth dilution method ([Zhou and Zhou, 2018]). Serial two-fold dilutions of the candidate peptides were prepared in 96-well plates containing the same microbial inoculum (E. coli, P. aeruginosa CMCC(B)10104, B. thuringiensis, S. aureus CMCC(B) 26003, or C. albicans CMCC(F) 98001). The plates were incubated (bacteria: 37°C; fungi: 28°C) for 16–18 h. Ampicillin was used as the positive control. The MIC was defined as the lowest peptide concentration where no visible growth occurred ([Diao et al., 2014]). The experiment was conducted in triplicate.

B. thuringiensis [7] = type: cell-based, Bacillus thuringiensis
Procedure: as §1, §3

S. aureus CMCC(B) 26003 [8] = type: cell-based, Staphylococcus aureus
Procedure: as §1, §3

E. coli [9] = type: cell-based, Escherichia coli; remark: listed apart in the source
Procedure: (§4) E. coli and S. aureus CMCC(B) 26003 (1 × 10^6 CFU/mL) were incubated in MHB with various final physiological concentrations of serum salts (150 mM NaCl, 4.5 mM KCl, 1 mM MgCl2, and […]). 50 μL of these E. coli or S. aureus CMCC(B) 26003 suspensions and 50 μL of AMP (serially diluted two-fold to a final concentration of 256 μg/mL) were added to a 96-well plate and incubated at 37°C for 16–18 h ([Chou et al., 2016]). The MIC values were then determined. The experiment was conducted in triplicate.

S. aureus CMCC(B) 26003 [10] = type: cell-based, Staphylococcus aureus; remark: listed apart in the source
Procedure: as §4

[11] = system: P. aeruginosa CMCC(B)10104; type: cell-based, Pseudomonas aeruginosa
Procedure: as §1, §3

[12] = system: C. albicans CMCC(F) 98001; type: cell-based, Candida albicans
Procedure: as §1, §3

E. coli [13] = experiment: time-kill assay; type: cell-based, Escherichia coli; conditions: 2× MIC, MHB with 10^6 CFU/mL, 37°C, 100 rpm, colony counting, n = 3
Procedure: (§5) The kill-time curve assay method was used to investigate the bactericidal effects of the […] according to the technique described by [Joray et al. (2011)]. A time–kill assay was used to examine the rate at which three AMPs (FD10, FD12, and FD15) killed two microbes (S. aureus CMCC(B) 26003 and E. coli) in vitro over time, based on the number of viable bacteria left at various time points after AMP exposure. Briefly, AMP at 2× MIC was added to MHB containing 10^6 CFU/mL S. aureus CMCC(B) 26003 or E. coli and the mixture was then incubated at 37°C and 100 rpm. At various time points, a sample was taken, serially diluted, and plated on MHA for colony counting ([Flamm et al., 2019]).

S. aureus CMCC(B) 26003 [14] = experiment: time-kill assay; type: cell-based, Staphylococcus aureus; conditions: 2× MIC, MHB with 10^6 CFU/mL, 37°C, 100 rpm, colony counting, n = 3
Procedure: as §5

[15] = micro-broth dilution, two-fold dilutions, 37°C, 16–18 h, no visible growth, triplicate

Substance	Inhibition circle diameter (mm) E. coli (E. coli [1]) [mm]	Inhibition circle diameter (mm) P. aeruginosa CMCC(B)10104 [2] [mm]	Inhibition circle diameter (mm) B. thuringiensis (B. thuringiensis [3]) [mm]	Inhibition circle diameter (mm) S. aureus CMCC(B) 26003 (S. aureus CMCC(B) 26003 [4]) [mm]	Inhibition circle diameter (mm) C. albicans CMCC(F) 98001 [5] [mm]	further results
AFQRTIRKFL [FD5]	0	0	0	0	0	
ANWDKVIR [FD13]	0	0	0	0	0	
VACAKRVVR [FD1]	0	0	0	0	0	
KIYVLLRRQA [FD12]						MIC (μg/mL) E. coli (E. coli [6]): 32 µg/mL; MIC (μg/mL) B. thuringiensis (B. thuringiensis [7]): 128 µg/mL; MIC (μg/mL) S. aureus CMCC(B) 26003 (S. aureus CMCC(B) 26003 [8]; CMCC(B) 26003): 16 µg/mL; MIC, Control (E. coli [9]): 32 µg/mL; MIC, FeCl3 (E. coli [9]): 32 µg/mL; MIC, KCl (E. coli [9]): 16 µg/mL; MIC, MgCl2 (E. coli [9]): 64 µg/mL; MIC, NaCl (E. coli [9]): 64 µg/mL; MIC, Control (S. aureus CMCC(B) 26003 [10]; CMCC(B) 26003): 16 µg/mL; MIC, FeCl3 (S. aureus CMCC(B) 26003 [10]; CMCC(B) 26003): 32 µg/mL; MIC, KCl (S. aureus CMCC(B) 26003 [10]; CMCC(B) 26003): 8 µg/mL; MIC, MgCl2 (S. aureus CMCC(B) 26003 [10]; CMCC(B) 26003): 32 µg/mL; MIC, NaCl (S. aureus CMCC(B) 26003 [10]; CMCC(B) 26003): 32 µg/mL
ANWKKVIR [FD14]						MIC (μg/mL) E. coli (E. coli [6]): 256 µg/mL; MIC (μg/mL) P. aeruginosa CMCC(B)10104 ([11]; CMCC(B)10104): 256 µg/mL; MIC (μg/mL) B. thuringiensis (B. thuringiensis [7]): 256 µg/mL
LVTRAAFHGKKV [FD8]	0	0	0	0	0	
IRAWVAWRNR [FD3]	0	0	0	0	0	
SLARAGKVR [FD9]	0	0	0	0	0	
IVHLLTKMTK [FD4]						MIC (μg/mL) S. aureus CMCC(B) 26003 (S. aureus CMCC(B) 26003 [8]; CMCC(B) 26003): 256 µg/mL
LARTLKRLGM [FD2]	0	0	0	0	0	
STLHLVLRLR [FD16]	0	0	0	0	0	
VFRLKKWIQKVI [FD10]						MIC (μg/mL) E. coli (E. coli [6]): 8 µg/mL; MIC (μg/mL) P. aeruginosa CMCC(B)10104 ([11]; CMCC(B)10104): 8 µg/mL; MIC (μg/mL) B. thuringiensis (B. thuringiensis [7]): 8 µg/mL; MIC (μg/mL) S. aureus CMCC(B) 26003 (S. aureus CMCC(B) 26003 [8]; CMCC(B) 26003): 16 µg/mL; MIC (μg/mL) C. albicans CMCC(F) 98001 ([12]; CMCC(F) 98001): 16 µg/mL; MIC, Control (E. coli [9]): 8 µg/mL; MIC, FeCl3 (E. coli [9]): 4 µg/mL; MIC, KCl (E. coli [9]): 4 µg/mL; MIC, MgCl2 (E. coli [9]): 16 µg/mL; MIC, NaCl (E. coli [9]): 16 µg/mL; MIC, Control (S. aureus CMCC(B) 26003 [10]; CMCC(B) 26003): 16 µg/mL; MIC, FeCl3 (S. aureus CMCC(B) 26003 [10]; CMCC(B) 26003): 16 µg/mL; MIC, KCl (S. aureus CMCC(B) 26003 [10]; CMCC(B) 26003): 8 µg/mL; MIC, MgCl2 (S. aureus CMCC(B) 26003 [10]; CMCC(B) 26003): 32 µg/mL; MIC, NaCl (S. aureus CMCC(B) 26003 [10]; CMCC(B) 26003): 32 µg/mL
STLHLVLRLR-NH2 [FD15, FD16 with -NH2 added to the terminal]	11.18 ± 0.38	0	9.15 ± 0.44	10.02 ± 0.22	0	MIC (μg/mL) E. coli (E. coli [6]; [15]): 32 µg/mL; MIC (μg/mL) P. aeruginosa CMCC(B)10104 [11, 15]: - (−Indicated that the MIC was greater than 256 μg/mL.); MIC (μg/mL) B. thuringiensis (B. thuringiensis [7]; [15]): 128 µg/mL; MIC (μg/mL) S. aureus CMCC(B) 26003 (S. aureus CMCC(B) 26003 [8]; [15]): 16 µg/mL; MIC (μg/mL) C. albicans CMCC(F) 98001 ([12]; micro-broth dilution, two-fold dilutions, 28°C, 16–18 h, no visible growth, triplicate): - (−Indicated that the MIC was greater than 256 μg/mL.); MIC, MgCl2 (E. coli [9]; E. coli, MHB with 1 mM MgCl2, 37°C, 16–18 h, triplicate): 64 µg/mL; MIC, FeCl3 (E. coli [9]; E. coli, MHB with 4 mM FeCl3, 37°C, 16–18 h, triplicate): 16 µg/mL; MIC, KCl (E. coli [9]; E. coli, MHB with 4.5 mM KCl, 37°C, 16–18 h, triplicate): 64 µg/mL; MIC, NaCl (E. coli [9]; E. coli, MHB with 150 mM NaCl, 37°C, 16–18 h, triplicate): 64 µg/mL; MIC, Control (E. coli [9]; E. coli, MHB, absence of physiological salts, 37°C, 16–18 h, triplicate): 32 µg/mL; MIC, MgCl2 (S. aureus CMCC(B) 26003 [10]; S. aureus CMCC(B) 26003, MHB with 1 mM MgCl2, 37°C, 16–18 h, triplicate): 64 µg/mL; MIC, FeCl3 (S. aureus CMCC(B) 26003 [10]; S. aureus CMCC(B) 26003, MHB with 4 mM FeCl3, 37°C, 16–18 h, triplicate): 32 µg/mL; MIC, KCl (S. aureus CMCC(B) 26003 [10]; S. aureus CMCC(B) 26003, MHB with 4.5 mM KCl, 37°C, 16–18 h, triplicate): 32 µg/mL; MIC, NaCl (S. aureus CMCC(B) 26003 [10]; S. aureus CMCC(B) 26003, MHB with 150 mM NaCl, 37°C, 16–18 h, triplicate): 64 µg/mL; MIC, Control (S. aureus CMCC(B) 26003 [10]; S. aureus CMCC(B) 26003, MHB, absence of physiological salts, 37°C, 16–18 h, triplicate): 16 µg/mL; time within which almost all E. coli cells were killed (E. coli [13]): ≤ 1 h; time within which almost all S. aureus cells were killed (S. aureus CMCC(B) 26003 [14]): ≤ 1 h
FPVGRVHRLL [FD11]	0	0	0	0	0	
KLLVPRCR [FD6]	0	0	0	0	0	
RIGRLVTRAAF [FD7]	0	0	0	0	0	
